According to ChEMBL document CHEMBL5291721, “A preclinical secondary pharmacology resource illuminates target-adverse drug reaction associations of marketed drugs” (Nat Commun, 2023):

Key:
[1] = target: Voltage-dependent N-type calcium channel subunit alpha-1B (Rattus norvegicus, UniProt Q02294); type: functional
Estrogen receptor beta = Estrogen receptor beta (Homo sapiens, UniProt Q92731)
[2] = target: T1, Alpha-1A adrenergic receptor (Homo sapiens, UniProt P35348); type: functional, cell-based
T1 sequence (P35348 whole entry): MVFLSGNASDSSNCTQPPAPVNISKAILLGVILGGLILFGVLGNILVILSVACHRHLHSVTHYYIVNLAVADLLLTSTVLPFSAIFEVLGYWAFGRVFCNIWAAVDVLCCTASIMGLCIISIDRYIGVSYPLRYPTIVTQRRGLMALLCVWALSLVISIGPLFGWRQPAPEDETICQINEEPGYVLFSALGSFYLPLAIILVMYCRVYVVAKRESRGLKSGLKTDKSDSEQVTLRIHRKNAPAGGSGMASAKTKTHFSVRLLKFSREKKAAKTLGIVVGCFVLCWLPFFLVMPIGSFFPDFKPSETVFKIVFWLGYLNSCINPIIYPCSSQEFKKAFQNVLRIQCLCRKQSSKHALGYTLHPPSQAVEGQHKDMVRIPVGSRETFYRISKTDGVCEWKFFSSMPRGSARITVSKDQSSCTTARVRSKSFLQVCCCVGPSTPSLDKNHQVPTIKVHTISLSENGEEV

Histamine H3 receptor = Histamine H3 receptor (Homo sapiens, UniProt Q9Y5N1)
Histamine H3 receptor, sequence (Q9Y5N1 whole entry): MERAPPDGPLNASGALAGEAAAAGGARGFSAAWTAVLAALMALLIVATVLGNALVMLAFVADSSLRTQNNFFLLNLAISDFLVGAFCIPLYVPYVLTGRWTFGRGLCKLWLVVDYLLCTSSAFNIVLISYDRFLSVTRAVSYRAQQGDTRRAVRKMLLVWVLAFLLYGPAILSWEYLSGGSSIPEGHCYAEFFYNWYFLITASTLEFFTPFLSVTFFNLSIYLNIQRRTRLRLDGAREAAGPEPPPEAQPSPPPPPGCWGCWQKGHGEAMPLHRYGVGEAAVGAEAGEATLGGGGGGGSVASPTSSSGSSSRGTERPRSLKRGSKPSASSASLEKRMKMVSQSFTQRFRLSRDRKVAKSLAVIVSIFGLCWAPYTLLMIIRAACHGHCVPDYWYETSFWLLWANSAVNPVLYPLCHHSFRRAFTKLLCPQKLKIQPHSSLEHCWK

Thromboxane A2 receptor [3] = target: T2, Thromboxane A2 receptor (Homo sapiens, UniProt P21731); type: functional, cell-based
T2 sequence (P21731 whole entry): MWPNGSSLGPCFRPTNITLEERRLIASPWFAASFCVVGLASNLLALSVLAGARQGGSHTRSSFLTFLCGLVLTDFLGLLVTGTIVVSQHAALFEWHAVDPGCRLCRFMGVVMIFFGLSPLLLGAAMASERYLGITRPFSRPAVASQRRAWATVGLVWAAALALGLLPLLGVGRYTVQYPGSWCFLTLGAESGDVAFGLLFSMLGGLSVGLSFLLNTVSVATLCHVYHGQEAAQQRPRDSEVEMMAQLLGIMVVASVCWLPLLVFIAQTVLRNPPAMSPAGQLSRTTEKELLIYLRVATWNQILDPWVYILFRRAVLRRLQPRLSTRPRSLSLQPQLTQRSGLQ

D(1A) dopamine receptor = D(1A) dopamine receptor (Homo sapiens, UniProt P21728)
D(1A) dopamine receptor, sequence (P21728 whole entry): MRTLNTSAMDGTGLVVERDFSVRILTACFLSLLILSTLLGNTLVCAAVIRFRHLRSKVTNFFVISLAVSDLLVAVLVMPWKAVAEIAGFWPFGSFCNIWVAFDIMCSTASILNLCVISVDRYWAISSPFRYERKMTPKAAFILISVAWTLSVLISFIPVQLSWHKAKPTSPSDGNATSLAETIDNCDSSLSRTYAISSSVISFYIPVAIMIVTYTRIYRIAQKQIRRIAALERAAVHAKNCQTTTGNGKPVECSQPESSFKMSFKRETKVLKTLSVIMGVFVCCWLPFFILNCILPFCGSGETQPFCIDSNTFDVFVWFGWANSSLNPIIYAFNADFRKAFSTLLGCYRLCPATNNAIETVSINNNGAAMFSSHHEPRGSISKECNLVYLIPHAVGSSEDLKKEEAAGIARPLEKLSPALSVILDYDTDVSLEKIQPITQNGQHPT

Thromboxane A2 receptor [4] = target: T2, Thromboxane A2 receptor; type: functional, cell-based; remark: listed apart in the source
[5] = target: T3, Muscarinic acetylcholine receptor M2 (Homo sapiens, UniProt P08172)
T3 sequence (P08172 whole entry): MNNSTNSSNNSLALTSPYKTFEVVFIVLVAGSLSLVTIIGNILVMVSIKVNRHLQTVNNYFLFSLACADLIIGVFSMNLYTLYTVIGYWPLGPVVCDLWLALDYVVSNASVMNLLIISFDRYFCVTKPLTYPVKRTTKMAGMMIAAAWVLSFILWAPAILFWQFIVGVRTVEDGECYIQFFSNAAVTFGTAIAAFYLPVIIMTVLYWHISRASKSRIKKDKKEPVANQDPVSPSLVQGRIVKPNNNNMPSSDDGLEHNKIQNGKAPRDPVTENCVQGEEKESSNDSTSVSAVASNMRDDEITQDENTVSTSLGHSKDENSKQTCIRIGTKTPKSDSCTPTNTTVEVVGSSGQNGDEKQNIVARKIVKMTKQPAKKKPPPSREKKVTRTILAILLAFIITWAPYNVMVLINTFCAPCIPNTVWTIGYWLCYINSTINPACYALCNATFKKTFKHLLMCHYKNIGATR

[6] = target: T4, Alpha-2A adrenergic receptor (Homo sapiens, UniProt P08913)
T4 sequence (P08913 whole entry): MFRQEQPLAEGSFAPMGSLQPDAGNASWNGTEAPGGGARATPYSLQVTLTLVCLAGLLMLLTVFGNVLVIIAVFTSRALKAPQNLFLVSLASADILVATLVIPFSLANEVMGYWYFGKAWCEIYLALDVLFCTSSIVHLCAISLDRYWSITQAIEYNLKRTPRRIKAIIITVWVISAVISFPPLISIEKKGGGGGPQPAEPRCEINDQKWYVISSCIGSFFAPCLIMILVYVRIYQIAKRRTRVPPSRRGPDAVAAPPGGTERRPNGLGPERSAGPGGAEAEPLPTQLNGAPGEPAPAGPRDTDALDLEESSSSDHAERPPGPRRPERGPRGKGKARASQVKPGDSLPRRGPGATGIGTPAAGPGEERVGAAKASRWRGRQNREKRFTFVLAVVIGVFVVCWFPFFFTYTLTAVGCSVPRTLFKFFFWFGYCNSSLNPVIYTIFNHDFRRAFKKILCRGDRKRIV

[7] = target: T5, Peroxisome proliferator-activated receptor gamma (Homo sapiens, UniProt P37231); type: functional
T5 sequence (P37231 whole entry): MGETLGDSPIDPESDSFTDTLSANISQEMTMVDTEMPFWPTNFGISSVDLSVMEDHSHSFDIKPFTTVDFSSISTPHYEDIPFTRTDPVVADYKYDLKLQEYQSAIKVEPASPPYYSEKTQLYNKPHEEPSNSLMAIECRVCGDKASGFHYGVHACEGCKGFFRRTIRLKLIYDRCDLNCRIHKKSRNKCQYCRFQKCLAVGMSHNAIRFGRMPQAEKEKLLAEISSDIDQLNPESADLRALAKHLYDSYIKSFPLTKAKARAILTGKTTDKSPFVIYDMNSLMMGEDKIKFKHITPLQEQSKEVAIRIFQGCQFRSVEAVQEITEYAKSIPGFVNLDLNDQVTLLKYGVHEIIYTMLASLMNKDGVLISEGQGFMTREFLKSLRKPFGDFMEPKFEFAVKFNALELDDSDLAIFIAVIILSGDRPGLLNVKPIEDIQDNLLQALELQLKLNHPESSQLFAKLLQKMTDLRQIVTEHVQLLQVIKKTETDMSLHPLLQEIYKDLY

[8] = target: Gamma-aminobutyric acid receptor subunit alpha-1/alpha-2/beta-2/gamma-2 (Homo sapiens, UniProt P14867+P18507+P47869+P47870); type: functional, cell-based
Also: assay procedure not described here.

Estrogen receptor beta, sequence (Q92731 whole entry): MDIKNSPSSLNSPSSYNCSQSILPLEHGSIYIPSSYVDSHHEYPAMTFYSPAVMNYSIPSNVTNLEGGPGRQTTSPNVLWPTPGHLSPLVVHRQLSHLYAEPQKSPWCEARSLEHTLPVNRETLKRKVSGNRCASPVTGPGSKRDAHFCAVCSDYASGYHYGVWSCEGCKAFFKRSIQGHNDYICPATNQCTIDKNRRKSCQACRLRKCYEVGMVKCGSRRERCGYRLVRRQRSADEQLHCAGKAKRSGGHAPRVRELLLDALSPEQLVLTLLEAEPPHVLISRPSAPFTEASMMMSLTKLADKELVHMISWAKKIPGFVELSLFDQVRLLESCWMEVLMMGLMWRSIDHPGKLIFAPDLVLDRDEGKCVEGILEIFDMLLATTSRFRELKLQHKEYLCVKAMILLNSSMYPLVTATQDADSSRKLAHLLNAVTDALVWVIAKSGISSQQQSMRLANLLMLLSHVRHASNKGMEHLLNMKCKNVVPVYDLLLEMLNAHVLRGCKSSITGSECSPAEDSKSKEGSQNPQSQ
Voltage-dependent N-type calcium channel subunit alpha-1B, sequence (Q02294 whole entry): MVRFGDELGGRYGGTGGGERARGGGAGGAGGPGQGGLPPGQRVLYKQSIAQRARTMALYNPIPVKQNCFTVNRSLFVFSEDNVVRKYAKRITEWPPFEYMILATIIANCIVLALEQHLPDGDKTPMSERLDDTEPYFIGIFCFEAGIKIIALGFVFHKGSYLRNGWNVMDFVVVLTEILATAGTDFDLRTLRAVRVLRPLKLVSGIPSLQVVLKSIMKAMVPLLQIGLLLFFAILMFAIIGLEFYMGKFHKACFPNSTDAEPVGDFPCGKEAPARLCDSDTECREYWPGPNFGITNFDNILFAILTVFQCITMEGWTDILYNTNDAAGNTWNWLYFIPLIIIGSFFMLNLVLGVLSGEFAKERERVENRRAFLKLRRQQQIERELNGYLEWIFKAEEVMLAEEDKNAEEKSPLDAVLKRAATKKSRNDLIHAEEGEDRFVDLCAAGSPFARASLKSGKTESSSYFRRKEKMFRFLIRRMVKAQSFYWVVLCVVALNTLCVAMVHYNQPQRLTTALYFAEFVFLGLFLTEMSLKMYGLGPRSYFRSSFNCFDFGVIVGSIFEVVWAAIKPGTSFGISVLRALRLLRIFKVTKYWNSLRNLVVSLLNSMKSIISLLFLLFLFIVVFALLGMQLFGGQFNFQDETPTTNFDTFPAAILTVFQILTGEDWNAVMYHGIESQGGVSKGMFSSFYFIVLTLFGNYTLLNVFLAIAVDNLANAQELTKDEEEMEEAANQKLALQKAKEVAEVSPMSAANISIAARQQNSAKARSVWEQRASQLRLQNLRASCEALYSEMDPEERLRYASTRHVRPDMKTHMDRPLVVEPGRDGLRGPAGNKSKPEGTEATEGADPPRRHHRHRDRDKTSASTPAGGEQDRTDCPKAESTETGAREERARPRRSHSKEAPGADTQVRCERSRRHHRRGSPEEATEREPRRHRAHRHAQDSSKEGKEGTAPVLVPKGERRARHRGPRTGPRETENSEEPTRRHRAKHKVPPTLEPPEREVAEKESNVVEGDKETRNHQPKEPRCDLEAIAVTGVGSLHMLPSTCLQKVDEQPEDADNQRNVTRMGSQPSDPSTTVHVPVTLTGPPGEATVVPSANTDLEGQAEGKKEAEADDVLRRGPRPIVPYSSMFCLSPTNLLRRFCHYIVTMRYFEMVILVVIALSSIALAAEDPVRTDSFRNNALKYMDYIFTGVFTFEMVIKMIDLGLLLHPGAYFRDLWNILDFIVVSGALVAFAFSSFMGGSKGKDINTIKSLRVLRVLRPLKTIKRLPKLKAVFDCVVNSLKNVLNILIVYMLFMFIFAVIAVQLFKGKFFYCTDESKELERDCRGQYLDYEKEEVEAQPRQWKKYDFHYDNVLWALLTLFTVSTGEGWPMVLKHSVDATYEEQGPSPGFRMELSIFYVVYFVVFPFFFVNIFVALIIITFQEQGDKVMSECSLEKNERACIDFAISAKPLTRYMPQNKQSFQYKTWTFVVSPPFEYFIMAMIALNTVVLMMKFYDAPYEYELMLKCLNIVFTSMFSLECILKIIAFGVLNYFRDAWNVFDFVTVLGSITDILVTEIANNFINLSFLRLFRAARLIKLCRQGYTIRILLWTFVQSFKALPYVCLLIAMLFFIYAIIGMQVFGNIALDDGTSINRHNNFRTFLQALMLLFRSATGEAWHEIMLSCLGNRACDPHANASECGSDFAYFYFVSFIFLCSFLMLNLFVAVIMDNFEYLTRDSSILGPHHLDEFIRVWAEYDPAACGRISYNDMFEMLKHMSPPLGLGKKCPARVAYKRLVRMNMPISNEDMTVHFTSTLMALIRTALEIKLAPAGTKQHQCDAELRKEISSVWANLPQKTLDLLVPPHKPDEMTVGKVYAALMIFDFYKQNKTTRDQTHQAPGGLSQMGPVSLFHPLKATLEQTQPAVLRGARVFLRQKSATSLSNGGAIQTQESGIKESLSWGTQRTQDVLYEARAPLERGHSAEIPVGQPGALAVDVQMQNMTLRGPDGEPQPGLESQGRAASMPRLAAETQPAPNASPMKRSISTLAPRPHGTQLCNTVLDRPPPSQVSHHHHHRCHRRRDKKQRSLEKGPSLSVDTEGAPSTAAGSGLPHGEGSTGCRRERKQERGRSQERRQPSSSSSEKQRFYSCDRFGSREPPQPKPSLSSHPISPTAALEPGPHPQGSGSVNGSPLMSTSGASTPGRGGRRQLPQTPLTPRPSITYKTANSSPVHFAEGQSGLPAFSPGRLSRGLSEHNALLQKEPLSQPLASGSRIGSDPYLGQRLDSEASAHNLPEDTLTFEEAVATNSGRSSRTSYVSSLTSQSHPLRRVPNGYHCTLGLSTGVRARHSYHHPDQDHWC

`Cn1c(=O)cc(N2CCC[C@@H](N)C2)n(Cc2ccccc2C#N)c1=O` [ALOGLIPTIN] gave an AC50 [1] greater than 10 µM and an AC50 (Estrogen receptor beta) greater than 30 µM.

`Nc1c2ccccc2nc2ccccc12` [AMINACRINE] was tested, and the AC50 [2] was greater than 30 µM, the AC50 (Histamine H3 receptor) was greater than 30 µM and the AC50 (Thromboxane A2 receptor [3]) was greater than 30 µM. The AC50 (D(1A) dopamine receptor) was 11.7 µM, the AC50 (Thromboxane A2 receptor [4]) was greater than 30 µM and the AC50 [5] was 4.27 µM. The AC50 [6] was 16.9 µM.

In the case of `Oc1ccc2c(c1)[C@@]13CCCC[C@@]1(O)[C@@H](C2)N(CC1CCC1)CC3` [BUTORPHANOL], the AC50 [7] is reported as greater than 30 µM and the AC50 [8] is reported as greater than 30 µM.

With `CC(=O)OCC(=O)[C@@]1(O)[C@H](C)C[C@H]2[C@@H]3CCC4=CC(=O)C=C[C@]4(C)[C@@]3(F)[C@@H](O)C[C@@]21C` [DEXAMETHASONE ACETATE] the AC50 [1] was greater than 10 µM and the AC50 (Estrogen receptor beta) was greater than 30 µM.

Work on `CCN1CCCC1CNC(=O)c1cc(S(=O)(=O)CC)c(N)cc1OC` (configuration not stated) [AMISULPRIDE] yielded an AC50 [7] greater than 30 µM and an AC50 [8] greater than 30 µM.

`O=C(O)CCCCC1CCSS1` (stereo not drawn) [LIPOIC ACID, ALPHA] showed an AC50 [2] greater than 30 µM, an AC50 (Histamine H3 receptor) greater than 30 µM and an AC50 (Thromboxane A2 receptor [3]) greater than 30 µM. The AC50 (D(1A) dopamine receptor) was greater than 30 µM, the AC50 (Thromboxane A2 receptor [4]) was greater than 30 µM and the AC50 [5] was greater than 30 µM. For the same molecule, the AC50 [6] was greater than 30 µM.
